The values that follow come from PMC8074792, “An ω-3, but Not an ω-6 Polyunsaturated Fatty Acid Decreases Membrane Dipole Potential and Stimulates Endo-Lysosomal Escape of Penetratin” (Frontiers in Cell and Developmental Biology, 2021).

In assay [1] the test system is JY cells. Description: Membrane dipole potential, di-8-ANEPPS excitation ratio, spectrofluorometry. The assay is classed as cell-based, human. The note with it: fatty acid 12.5-50 μM for 48 h, result at maximal 50 μM, n = 5. As for the experimental part: (§1) The human acute monocytic leukemia-derived cell line THP-1 and the human Epstein-Barr virus (EBV) transformed lymphoblastoid cell line JY were obtained from the American Type Culture Collection (Manassas, VA, United States) and cultivated according to their specifications. […] As controls, cells were treated with the corresponding amounts of native MβCD complexes not containing sterols. To study the effects of fatty acids, cells were incubated for 48 h in medium supplemented with saturated stearic acid (SA, Sigma Aldrich), ω-3 polyunsaturated α-linolenic acid (ALA, Sigma Aldrich) or ω-6 polyunsaturated γ-linolenic acid (GLA, Sigma Aldrich) at various concentrations ranging from 12.5 to 50 μM. […] After washing, cells were kept on ice and samples were subsequently warmed to 37°C right before measurements carried out with a Fluorolog-3 spectrofluorometer (Horiba Jobin Yvon, Edison, NJ, United States). During measurements, the cuvette holder was kept at 37°C using a circulating water bath. Excitation spectra were recorded between 380 and 550 nm with the detected emission wavelength set to 660 nm in order to minimize effects of possible changes in membrane fluidity ([Clarke and Kane, 1997]). The ratio of fluorescence intensities integrated between excitation wavelengths 410–440 nm and 490–520 nm was calculated for each sample, which positively correlates with the magnitude of DP ([Clarke and Kane, 1997]; [Kovacs et al., 2017]; [Batta et al., 2020]).

Assay [2] deals with THP-1 cells. The description is as above. In kind it is cell-based, human. The note with it: fatty acid 12.5-50 μM for 48 h, result at maximal 50 μM, n = 5. As to the method:
as §1

For assay [3], the system named is JY cells. Description: Membrane hydration, PY3174 generalized polarization, confocal microscopy. The note with it: 200 μM sterol 1 h or 50 μM fatty acid 48 h, efficacy order 6KC > cholesterol ≥ 7DHC, effects of 7DHC and SA not statistically significant. The assay is classed as cell-based, human. As to the method:
(§2) For these measurements, cells were labeled with 10 μM PY3174 for 20 min at room temperature. […] During processing, segmentation of images into membrane and non-membrane pixels was carried out with the manually seeded watershed algorithm using a custom-written MATLAB program as described previously ([Kovacs et al., 2017]). The average value of general polarization correlating with the degree of membrane compactness ([[…] et al., 2013]) was calculated from the data of cell membrane pixels after background subtraction using […]

Assay [4] concerns THP-1 cells. The assay is described as above. In kind it is cell-based, human. The note with it: 200 μM sterol 1 h or 50 μM fatty acid 48 h, efficacy order 6KC > cholesterol ≥ 7DHC, all statistically significant. As for the experimental part: as §2
For assay [5], the system named is JY cells. Briefly: Penetratin uptake and endo-lysosomal escape, time-correlated flow cytometry. In kind it is cell-based, human. The note with it: 50 μM fatty acid 48 h, 5 μM AFDye532- and 5 μM NF-penetratin, 37°C, compared at 900 s, n = 5. From the text:
(§3) Penetratin ([…]-amide, molecular weight 2245.75 g/mol) was synthesized manually on TentaGel R RAM (Rapp Polymere, Tübingen, Germany), a low crosslinked polystyrene PEG copolymer resin by the solid-phase method of Merrifield with standard Fmoc chemistry, as described in detail in our recent study ([Batta et al., 2020]). After coupling the last arginine, one half of the penetratin was reacted with AFDye532 N-hydroxysuccinimide ester (molecular weight 723.77 g/mol, Fluoroprobes, Scottsdale, AZ, United States), while the other half with 5(6)-carboxynaphthofluorescein N-succinimidyl ester (molecular weight 573.51 g/mol, Darmstadt, Germany). Completion of the coupling was assessed by Kaiser test, which was followed by deprotection and release from the resin. After filtration and precipitation with cold diethyl ether, the crude products were purified by preparative reversed-phase HPLC (JASCO, Victoria, BC, Canada) on a C18 column and lyophilized. The purity of the products (>95%) was assessed by reversed-phase HPLC (JASCO) equipped with an analytical C18 column. […] These values well correlated with the predicted masses of the labeled peptides (2983.59 and 2833.33, respectively).
(§4) Total cellular penetratin uptake and endo-lysosomal escape was determined as described previously ([Batta et al., 2020]). Briefly, control THP-1 or JY cells and those treated with 50 μM ALA, GLA or SA for 48 h at 37°C were incubated in the continuous presence of 5 μM AFDye532-penetratin, 5 μM NF-penetratin and 0.25 μg/ml DAPI at 37°C in the thermostated sample holder of a FACS Aria III flow cytometer. The fluorescence intensity of DAPI was measured using an excitation at 405 nm and an emission filter 450/20 nm. AFDye532 and NF were excited at 488 and 561 nm, respectively, and their fluorescence was determined using emission filters 530/30 and 670/14 nm, respectively. Measurements started immediately after addition of DAPI and penetratin and continued for 20 min at 37°C. Experimental data were analyzed first in FCS Express. Time-correlated fluorescence intensity values of DAPI-negative living cells were exported after spectral compensation and the moving averages of samples were calculated with a window size of 10 s. […] During analysis, fluorescence intensity values were first normalized to the average intensity in the first time window, which was followed by calculation of the fluorescence ratio from the normalized values.
For orientation: Flow cytometry measures light scatter and fluorescence of single cells or particles in a stream.

Assay [6] deals with THP-1 cells. Described as above. The assay is classed as cell-based, human. The note with it: 50 μM fatty acid 48 h, 5 μM AFDye532- and 5 μM NF-penetratin, 37°C, compared at 900 s, n = 5.
Excerpt: as §3, §4

For assay [7], the system named is JY cells. The note with it: 50 μM fatty acid 48 h, LysoTracker Deep Red and 10 µM PY3174 2 h at 37°C, extent similar to cell membrane. As for the experimental part: (§5) Measurement of hydration of lysosomal membranes with fluorescence microscopy […]
(§6) The PY3174 fluorophore capable of providing information about the hydration of the cell membrane […]
(§7) via an emission ratiometric fluorescence microscopy assay was a kind gift from Leslie M. Loew […]
(§8) (University of Connecticut, CT) (1). For these measurements, cells were placed onto an 8-well […]
(§9) chambered coverglass and labeled with 100 nM LysoTracker Deep Red (Thermo Fisher Scientific, […]
(§10) Waltham, MA) for visualization of lysosomes and 10 µM PY3174 for 2 hours at 37°C to stimulate the […]
(§11) endocytosis of the environment-sensitive fluorophore. After staining, images were taken at the […]
(§12) midplane of cells using an LSM880 confocal laser-scanning microscope (Carl Zeiss AG, Jena, […]
(§13) Germany). PY3174 was excited at 488 nm and emitted intensities were measured in two wavelength […]
(§14) ranges between 500 and 540 nm (Iblue) and 650 and 735 nm (Ired), while LysoTracker Deep Red was […]
(§15) excited at 633 nm and emission was detected between 650 and 735 nm. During processing, pixels […]
(§16) corresponding to lysosomal membranes were identified based on the intensity of LysoTracker Deep […]
(§17) Red using a custom-written algorithm under MATLAB. The average value of generalized polarization […]
(§18) (GP) correlating with the degree of membrane hydration (1) was calculated from the data of lysosomal […]
(§19) membrane pixels after background subtraction using […]
(§20) (1 picture or pasted object on this page, not shown here)

Assay [8] relates to THP-1 cells. The note with it: 50 μM fatty acid 48 h, LysoTracker Deep Red and 10 µM PY3174 2 h at 37°C, extent similar to cell membrane. As for the experimental part:
as §5, §6, §7, §8, §9, §10, §11, §12, §13, §14, §15, §16, §17, §18, §19, §20

Molecules are shown by their SMILES.

On to `CC/C=C\C/C=C\C/C=C\CCCCCCCC(=O)O` [ALA, α-linolenic acid], for which the “Rexc, di-8-ANEPPS” value with JY cells [1] and with THP-1 cells [2] was “significantly decreased” throughout. In addition, the “PY3174 generalized polarization in the cell membrane (inversely correlates with membrane hydration)” value with JY cells [3] and with THP-1 cells [4] was “reduced” in each case. The “ratio of NF and AFDye532 intensities (endo-lysosomal escape of penetratin) vs controls” value in the assay with JY cells [5] and in the assay with THP-1 cells [6] was “significantly increased” in each case. Moreover, the “generalized polarization of PY3174 in the lysosomal membranes” value in the assay on JY cells [7] and in the assay with THP-1 cells [8] was “decreased” each time.
`CCCCC/C=C\C/C=C\C/C=C\CCCCC(=O)O` [GLA, γ-linolenic acid]: the “Rexc, di-8-ANEPPS” value with JY cells [1] and in the assay on THP-1 cells [2] was “significant increases” throughout. The “PY3174 generalized polarization in the cell membrane (inversely correlates with membrane hydration)” value with JY cells [3] and in the assay on THP-1 cells [4] was “reduced” each time. Further, the “ratio of NF and AFDye532 intensities (endo-lysosomal escape of penetratin) vs controls” value with JY cells [5] and in the assay on THP-1 cells [6] was “no significant changes” in each case. Further, the “generalized polarization of PY3174 in the lysosomal membranes” value in the assay on JY cells [7] and in the assay with THP-1 cells [8] was “decreased” each time.
